According to a melting point compilation (Tetko et al.; mined from patent text by program, amines drawn as free bases though some values may be those of a salt):

| Structure (SMILES) | melting point [°C] |
| --- | --- |
| Cn1nc(-c2ccccc2)c(S(=O)(=O)c2ccccc2)c1-c1ccccc1 | 135 to 141 |
| C#C[C@]1(OC(C)=O)CC[C@H]2[C@@H]3CC(=C)C4=CC(=O)CC[C@@H]4[C@H]3CC[C@@]21C | 157 |
| COc1cc(NC(=O)Nc2ccccc2)c(O)c(C(C)(C)C)c1 | 147 to 149 |
| CN1CC(c2ccc(Nc3cc(-c4cccc(N5Cc6cc(C(C)(C)C)ccc6C5=O)c4CO)cn(C)c3=O)nc2)C1 | 201 to 202 |
| CC=CC=CC(=O)N1CC1C#N (configuration not stated) | 56 to 58 |
| COC(=O)Cc1ccc(OCCNC(=O)C2Cc3ccccc3N2S(=O)(=O)c2ccc(-c3cccc(C(F)(F)F)c3)c(Cl)c2)cc1 (configuration not stated) | 60 |
| Cc1cccc(C)c1Oc1cc2c(cc1Cl)C=C(C(=O)O)C(C(F)(F)F)O2 (configuration not stated) | 253 to 259 |
| CC(=O)c1ccc2ccn(S(=O)(=O)c3ccccc3)c2c1 | 160 to 163 |
| CC(C)(C)OC(=O)N(CCCCCCN1C(=O)c2ccccc2C1=O)CCN(CCCCCCN1C(=O)c2ccccc2C1=O)C(=O)OC(C)(C)C | 96 |
| CC(C)n1cc(-c2ccc(NS(=O)(=O)c3ccccc3)cc2)c2c(N)ncnc21 | 238 to 240 |
| CCOC(=O)C1=CC=C2C(=CNN2CC)N1NN=C(C)CC#N | 190 to 191 |
| N#Cc1cn(-c2ccc(C(F)(F)F)cc2)c(=O)n(SC(Cl)(Cl)Cl)c1=O | 167 to 168 |
| COC(=O)c1nc(CCl)n(-c2ccc(Cl)cc2C(=O)c2ccccc2Cl)n1 | 130 to 132 |
| O=C1CCC(N2Cc3c(OCc4ccc(CN5CCOCC5)c(F)c4)cccc3C2=O)C(=O)N1 (configuration not stated) | 263 to 265 |
| CC(C)Cn1c(=O)[nH]c2c(C(N)=O)nc(-c3cccc(O)c3)nc21 | 374 to 376 |
| Cc1cccc(C(=O)Cc2ccnc(-c3ccc(OCC(N)=O)cc3)c2)n1 | 144 to 146 |
| CCn1cc(C(=O)O)c(=O)c2cc(F)c(N3CCC(CNC)C3)nc21 (configuration not stated) | 251 to 253 |
| Cc1ccccc1N1CCN(Cc2c[nH]c3ncccc23)CC1 | 174 to 176 |
| CCOc1c(C(=O)OCC(C)(C)C(=O)C(C)(C)C)oc2ccc(OC)cc12 | 105 to 106 |
| CCC1Cc2c(C)c(O)c(C)c(C)c2O1 (racemic) | 73 to 75 |
| O=C1OC2(CC(c3cccc(-c4ccccc4)c3)=NO2)c2ccccc21 (configuration not stated) | 152 to 159 |
| C[C@@H](CN(Cc1ccccc1)Cc1ccccc1)OC(=O)N1C(C)(C)COC1(C)C | 117 |
| COc1ccc2c(c1)c1c3c(c(-c4ccccc4Cl)cc1n2CCC#N)C(=O)NC3=O | 287 to 288 |

| Structure (SMILES) | melting point [°C] |
| --- | --- |
| O=C1NCC(Cc2cccc(Cl)c2)O1 (configuration not stated) | 113 to 114 |
| Cc1ccc(C)c(C(=O)CC#N)c1 | 75 to 76 |
| CCOC(=O)CC1(CC)OCCc2c1[nH]c1c(C)cccc21 (configuration not stated) | 77 to 78 |
| CCOC(=O)c1nn(C)cc1C(F)F | 30 to 31 |
| C=CCOc1c(Cl)cc(C2=NNC(=O)CC2)cc1Cl | 137 |
| CC(C)(C)C(=O)SCCNC(=O)CCNC(=O)OCc1ccccc1 | 87 to 88 |
| CCNc1nc(SC)ncc1C=Nc1cc(OC)cc(OC)c1 | 100 to 105 |
| C[C@H](c1ccccc1)n1c(=O)c2c(N3CCNCC3)cc(Cl)cc2n(Cc2ccccc2)c1=O | 91 to 96 |
| OC(CCC(c1ccccc1)c1ccccc1)c1cncn1Cc1ccccc1 (configuration not stated) | 160 to 168 |
| OCc1c[nH]c(-c2ccc(OCc3ccccc3)cc2)n1 | 183 to 185 |
| CCOC(=O)N1CCc2nc3ccccc3c(C)c2CC1 | 125 |
| NC(=S)NN=C(CCC(=O)NC1CCCCC1)c1ccccc1 | 89 to 92 |
| COc1ccc(C(=O)NCc2ccc(C)n2CCC#N)cc1OC | 175 to 176 |
| O=Cc1nn(-c2ccc([N+](=O)[O-])cc2)c2c1CCCC2 | 147 to 148 |
| CCOC(=O)C1(C(=O)OCC)CCC2(NCCc3cc(OC)c(OC)cc32)C(C2c3cc(OC)c(OC)cc3CCN2CC)C1 (configuration not stated) | 146 to 147 |
| CCOC(=O)CN1CCN(c2cc3c(cc2Cl)c(=O)c(C(=O)O)cn3CC)CC1 | 230 to 232 |
| CCCCCCCCCCCCC/C=C1\C(=O)OCC1(CO)COC(C)=O (configuration not stated) | 48 |
| Cn1cc(C=O)c2ccc3oc4ccccc4c3c21 | 163 to 165 |
| CN1CC(C(=O)COC(=O)c2cncc(Br)c2)CC2c3cccc4[nH]cc(c34)CC21 (configuration not stated) | 185 to 187 |
| CCC1C(=O)Nc2cccc3c2N1C(=O)C3c1ccccc1 (configuration not stated) | 205 to 208 |
| CSc1ncc(F)c(N)n1 | 114 to 115 |
| COCCc1nc2c(N)nc3ccccc3c2n1CCCNC(=O)NC1CCCCC1 | 179 to 180 |
| O=C1CCC(N2Cc3c(OCc4cccc(Cl)c4Cl)cccc3C2=O)C(=O)N1 (configuration not stated) | 272 to 274 |

Second part, the compound after the results:

| melting point [°C] | Structure (SMILES) |
| --- | --- |
| 105 to 106 | OCc1cn(-c2ccc(OC(F)(F)F)cc2)cn1 |
| 211 | Cn1c(-c2cnc(-c3ccccc3)nc2)cnc1-c1ccccc1 |
| 113 to 114 | COC(=O)C1=C(C)NC(C)=C(C(=O)OC)C1c1ccccc1CC(OC)OC |
| 179 to 181 | CCOC(=O)C(=O)CC(=O)c1cn(Cc2ccc(O)cc2)c2ccccc2c1=O |
| 74 to 75 | CCOC(=O)CCN(C)CC(C(=O)OC)c1cc(OC)c(CC)c(OC)c1 (configuration not stated) |
| 156 to 157 | CCCc1nc2cnc3ccccc3c2n1CCCCNS(=O)(=O)c1ccccc1 |
| 116 to 119 | CSc1nc2cnc3ccccc3c2s1 |
| 120 to 121 | Cc1ccc(S(=O)(=O)NC(CCCCNC(=O)OCc2ccccc2)C(=O)O)cc1 (configuration not stated) |
| 216 to 221 | Cc1[nH]cnc1CNC(=N)NC#N |
| 60.5 to 61.5 | CCCCCCCCCCCCCCSc1ccc(Cl)c(N)c1 |
| 75 | CCC[C@H]1CC[C@H](CCCOc2ccc(C(=O)O[C@H](c3ccccc3)[C@H](OC(=O)c3ccc(OCCC[C@H]4CC[C@H](CCC)CC4)cc3)c3ccccc3)cc2)CC1 |
| 63 | CCOC(=O)C(C)Oc1ccc(OCc2ccccc2)cc1F (configuration not stated) |
| 205 to 206 | CC(=O)c1ccc2c(c1)ncn2-c1cccc(-n2ccnc2)c1 |
| 141 to 143 | CCOc1cc2ncnc(Cl)c2cc1OCC |
| 123 to 125 | CN(C)c1ccc(C(=O)N2CCC(Nc3nc(Nc4cccc(C(F)(F)F)c4)nc(OCC(F)(F)F)n3)CC2)cc1 |
| 146 | N#CC1c2ccc(Br)cc2CCC1c1ccc(F)cc1 (configuration not stated) |
| 163 to 164 | CCC(C)(O/N=C(\C(=O)O)c1csc(NC(c2ccccc2)(c2ccccc2)c2ccccc2)n1)C(=O)OC(C)(C)C (configuration not stated) |
| 162 to 163 | O=C(NC(=O)C(Br)CBr)Nc1ccc(Cl)cc1 (configuration not stated) |
| 124 to 125 | CCN1C[C@@H](SCc2ccc(OC)cc2)C[C@H]1C(N)=O |
| 194 to 197 | CCOCCN(CC)c1ccc(-c2ccc3c(c2)C=C(C(=O)Nc2ccc(CN(C)C4CCOCC4)cc2)CCS3(=O)=O)cc1 |
| 199 to 200 | COc1cccc(N2CCN(S(=O)(=O)c3ccc(/C=C/C(=O)NO)cc3)CC2)c1 |
| 187 to 189 | CCCC(=O)N(Cc1ccc(-c2ccccc2-c2nnn[nH]2)cc1)C(C)(C)C(=O)O |
| 129 to 131 | COc1ccc(C)cc1NC(=O)Nc1ccc(N2CCN(C(=O)Nc3ccc(OCCO)cc3Cl)C(C)C2)cc1 (configuration not stated) |
| 375 | O=C(O)c1cccc2c(=O)c3cc([N+](=O)[O-])ccc3[nH]c12 |
| 141 to 143 | O=C1C(=O)N(Cc2ccc(Br)cc2F)c2c1cccc2C(F)(F)F |
| 71 | C#Cc1ccc(C2CCC(C3CCC(CCC)CC3)CC2)cc1 (configuration not stated) |

| melting point [°C] | Structure (SMILES) |
| --- | --- |
| < 130 | CCCCc1nn(-c2cc(NC(C)=O)ccc2Cl)c(=O)n1Cc1ccc(-c2cc(CCC)ccc2S(=O)(=O)NC(=O)OC(C)(C)C)cc1F |
| 136 to 137 | CC(C)(C)OC(=O)CCc1ccnc(-c2nc(=O)c3ccccc3s2)c1 |
| 122 to 124 | COC(=O)c1c[nH]c(Sc2ccc(Cl)cc2)c1 |
| 158 | CCOC(=O)c1c(CC(=O)O)n(-c2ccc(OC(C)C)cc2)c2ccc(Oc3ccc(C(F)(F)F)cc3)cc12 |
| 133 to 135 | CCOC(=O)c1cc(C#N)c(C)nc1Nc1ccccc1 |
| 68 to 74 | CC(C)(C)OC(=O)Nc1ccc(OC(=O)C2CCCCC2)c(C(=O)O)c1 |
| > 300 | COc1cc2cc3c(=O)c(C#N)c[nH]c3nc2cc1OC |
| < 50 | CCSCCn1c(=N)sc2cc(C(F)(F)C(F)(F)F)ccc21 |
| 62 to 63 | COc1ccc(-c2cccnc2)cc1 |
| 144 | CC(C)(Oc1cccc(C(=O)c2ccc(Cl)cc2)c1)C(=O)O |
| 195 to 196 | CCc1cc2cc(O)ccc2c(Oc2ccc(/C=C/C(=O)N3CCN(C)CC3)cc2)c1-c1ccccc1 |
| 155 | CCCn1cnc2cc(CN3CCN(C(c4ccccc4)c4ccccc4)CC3)ccc21 |
| 241 to 242 | CCn1c(=O)c2c(nc(/C=C/c3ccc(OC)c(OC(C)=O)c3)n2C)n(CC)c1=O |
| 34.1 to 34.9 | C=C1[C@H](C(=O)OC)[C@H]1C(=O)OC |
| 58 to 59 | C[Si](C)(CC[Si](C)(C)c1ccc(C(F)(F)F)cc1)c1ccc(C(F)(F)F)cc1 |
| 99 to 104 | COc1ccc(C(=O)Cc2c(Cl)cncc2Cl)c2c1OCC2C (configuration not stated) |
| 91.2 to 92.2 | COc1ccc(CNC=C(C(C)=O)C(C)=O)cc1 |
| 131 | CCOC(=O)c1c(O)c2cc(F)ccc2n(C)c1=O |
| 267 to 268 | Cc1ccc2nc(NC(=O)c3ccc(C(C)(C)CCc4noc(=O)[nH]4)cc3)cn2c1 |
| 208 to 210 | COc1ccc(-c2c(Cl)c(CN3C(=O)CCC3=O)nc3sc4c(c23)CCN(C(C)=O)C4)cc1OC |
| 119 | O=C(NC(Cc1c[nH]c2ccccc12)C(=O)OCc1ccc(Cl)cc1)c1ccccc1 (configuration not stated) |
| 161 to 162 | CCCCCCCCOC(=O)C(N)C=CCP(=O)(O)O (configuration not stated) |
| 198 to 199 | COc1ccc(N=c2scc(-c3ccc(Cl)c(S(=O)(=O)N(C)C)c3)n2C)cc1 |
| 127 to 129 | CCCCCC(=O)N1c2ccccc2NC(=O)c2cscc21 |
| 59 to 61 | C[C@H](NC(=O)c1cccnc1Oc1ccc(F)cc1)c1cccs1 |
